The source of these data is article PMC9225741, “Inhibition of Streptococcus mutans adhesion and biofilm formation with small-molecule inhibitors of sortase A from Juniperus chinensis” (Journal of Oral Microbiology, 2022).

Assay [1] relates to S. mutans OMZ65. Kind of assay: Antibacterial activity assay (MIC, broth dilution). Format: cell-based, Streptococcus mutans. The conditions noted are these: S. mutans OMZ65, BHI broth, 16–20 h, 37°C, read-out: MIC (minimum inhibitory concentration). As for the experimental part: Antibacterial activities of isolated compounds were determined according to a previously described method based on Clinical and Laboratory Standards Institute guidelines. Briefly, 5 mL of S. mutans OMZ65 was inoculated into brain heart infusion (BHI) broth, incubated aerobically for 16 h at 37°C, and the bacterial density was adjusted based on turbidity to match the 0.5 MacFarland standard at 625 nm. In each well of a 96-well plate, 20 μL of twofold diluted test compounds in 10% DMSO was added to 180 μL of cell culture in BHI broth and incubated for 16–20 h at 37°C. The final concentration of cells was approximately 5 × 10^5 colony-forming units (CFU)/mL. The minimal inhibitory concentration (MIC) values were identified as the lowest concentration that inhibited cell growth. Ampicillin was used as an antibacterial positive control.
Background: Broth dilution looks for growth in wells or tubes with falling amounts of substance.

The test system of assay [2] is SrtA (from strain ATCC25175). On the set-up: method as in PMID 24154653. Conditions: cited from earlier work.
The target in assay [3] is T1, S. mutans SrtA (Streptococcus mutans, UniProt Q8CM62).
T1 construct: made in house; host or cells: Escherichia coli
Kind of assay: biochemical. The class given is biochemical, Streptococcus mutans OMZ65. As for the experimental part:
Recombinant SrtA protein was prepared following previously described procedures. S. mutans OMZ65 isolated from the human oral cavity was provided by Seoul National University School of Dentistry. The srtA genes derived from S. mutans OMZ65 were expressed in Escherichia coli and SrtA was purified through metal chelate affinity chromatography on Ni-nitriloacetic acid (NTA) resin. Each reaction was performed in a total volume of 100 μL, containing 50 mM Tris-HCl, 150 mM NaCl, and 5 mM CaCl2 at pH 7.5, along with 17 μg of purified SrtA and 250 ng of synthetic substrate (Dabcyl-LPETG-Edans). The sample compounds were added to each reaction mixture with the solvent DMSO (final concentration, 1%). After 1 h of incubation at 37°C, the reactions were quantified based on fluorometric intensity (350 nm excitation and 495 nm emission wavelengths) using a microplate reader (FLx800, BioTek Instruments, Winooski, VT). Triphasiol was used as a positive control for the SrtA inhibitor.
Recombinant SrtA protein derived from S. mutans OMZ65 was prepared from an extract of E. coli transformant using Ni-NTA affinity chromatography. SrtA enzyme activities were measured through a fluorophotometric method using synthetic peptide substrate containing the LPETG motif. […] As SrtA inhibitors may act as anti-infective agents and disrupt bacterial infectiousness without impacting bacterial viability, the MICs of the isolated compounds were evaluated to identify possible effects on S. mutans aggregation, adhesion, and biofilm formation on solid surfaces.

The test system of assay [4] is S. mutans NG8. Kind of assay: Adherence assay on saliva-coated hydroxyapatite beads. The class given is cell-based, Streptococcus mutans. The conditions noted are these: 90 min.
Method: The effect of SrtA inhibition on bacterial adherence was evaluated using saliva-coated hydroxyapatite beads (s-HAs) [11, 25]. A total of 30 μg of s-HAs (diameter, 80 µm; Bio-Rad, Hercules, CA) were coated with fresh saliva prepared as mentioned above for 1 h at room temperature and rinsed twice with 0.01 M potassium phosphate buffer (KPB; pH 7.0). S. mutans NG8 (wild type), srtA-deletion mutant (ΔsrtA), and srtA-complemented mutant (ΔsrtA + srtA) [11] were inoculated into 5 mL of BHI broth, incubated aerobically for 16 h at 37°C, and diluted to about 10^8 CFU/mL. […] After three rounds of washing with KPB, attachment between s-HAs and S. mutans cells was disrupted through sonication (50 W, 30s) in KPB. Dispersed cells were spread on Mitis-Salivarius agar (Difco, Detroit, MI) plates containing 3.2 mg/mL bacitracin. The number of colonies formed was determined after incubation for 48 h at 37°C.
In the present study, the role of SrtA inhibitors in modulating cell-surface-related properties of S. mutans was investigated in terms of adherence.
Attachment of S. mutans NG8, srtA-deletion mutant (ΔsrtA), and srtA-complemented mutant (ΔsrtA+srtA) was induced for 90 min at 37°C under aerobic condition, followed by dispersal via sonication (50 W, 30s) after three washes, and then colony-forming unit counting on Mitis-Salivarius agar (3.2 mg/mL bacitracin) after incubation for 48 h at 37°C. […]
The subject of assay [5] is S. mutans. Kind of assay: Biofilm formation assay (polystyrene plate and resin teeth, safranin staining). The class given is cell-based, Streptococcus mutans. Conditions: 24 h. As for the experimental part:
The effect of SrtA inhibition on bacterial biofilm formation was investigated using the polystyrene plate and resin teeth model according to a previously described method. Wild-type S. mutans and srtA mutants were inoculated aerobically into 5 mL of BHI broth at 37°C. Cultures in BHI broth containing 0.1% sucrose (final concentration 5 × 10^5 CFU/mL) were incubated with or without test compounds on 96-well polystyrene plates or with resin teeth (Endura, Shofu Inc., Kyoto, Japan) at 37°C for 24 h under aerobic condition. Biofilms formed on the plate and resin teeth were washed twice with distilled water and then stained with 0.1% safranin for 30 s. After three further washes, the safranin-bound biofilms on plates were dissolved with 30% acetic acid (v/v aqueous solution) and the intensity of absorbance at 530 nm wavelength, indicating safranin, was measured. Biofilms on resin teeth was also washed three times and photographed.
Bacterial adherence and aggregation are initial steps in the biofilm formation process. Through interruption of SrtA enzyme activity, biofilm formation by S. mutans could also be disrupted. To investigate the effect of compound 1 on biofilm formation of S. mutans, the biofilm biomasses of NG8 and srtA mutants formed over 24 h on 96-well plates and resin teeth were assessed through staining with 0.1% safranin.
Figure 5. Inhibition of Streptococcus mutans biofilm formation by compound 1. Biofilm formation assays were performed using a polystyrene 96-well plate (A) and artificial resin teeth (B) at 37°C for 24 h under aerobic condition. […] 0.1% NaF was used as a positive control. Data are presented as the mean ± SD of three independent experiments (* p < 0.05, ** p < 0.01, and *** p < 0.001 based on Student’s t-test).

Assay [6] concerns S. mutans NG8. Kind of assay: Saliva-induced aggregation assay. Format: cell-based, Streptococcus mutans. As to the method: The effect of SrtA inhibitor on bacterial cell aggregation induced by human saliva was conducted according to a previously documented procedure. S. mutans NG8 (wild-type), srtA-deletion mutant (ΔsrtA), and srtA-complemented mutant (ΔsrtA+srtA) were used in this study. These strains were kindly provided by Prof. S. F. Lee (Dalhousie University, Nova Scotia, Canada) and inoculated into Todd Hewitt broth and incubated for 16 h at 37°C, washed twice with KPBS (137 mM NaCl, 2.7 mM KCl, 6.5 mM Na2HPO4, 1.5 mM KH2PO4, pH 7.2), and resuspended in KPBS to an approximate optical density of 1.0 at 700 nm. Assay mixtures consisted of 400 μL of cells, 100 μL of fresh clarified saliva, and diluted test compounds. Saliva was provided from one volunteer (a unmarried person) who had no dental health issues. The collected non-stimulated saliva was clarified by centrifugation (7,000 × g, 10 min, 4°C) and sterilized by membrane filtration (0.2 μm pore size). The mixtures were gently mixed through inversion and incubated aerobically at 37°C for 2 h. Turbidity at 700 nm was recorded every 20 min.
Using a combined bioactivity test, we subsequently examined the inhibitory effects of compound 1 on saliva-induced aggregation of S. mutans (Figure 3). […] Aggregation levels were measured based on the decrease of turbidity at 700 nm. […]

The test system of assay [7] is S. aureus ATCC6537p-derived SrtA. Set-up: method as in PMID 16010573. The conditions noted are these: cited from earlier work.
Assay [8] relates to SrtA S. mutans OMZ65. On the set-up: method as in PMID 25746812. The conditions noted are these: read-out: IC50, SrtA inhibitors against S. mutans OMZ65; cited from earlier work.
Assay [9] relates to SrtA derived from S. mutans UA159. The conditions noted are these: cited from earlier work.
Assay [10] has as its system SrtA. Conditions: read-out: IC50, SrtA activity; cited from earlier work.
Setting [11] is: SrtA IC50, recombinant SrtA from S. mutans OMZ65, 1 h, 37°C.

A word on the IC50: it is the concentration at which inhibition is half-maximal. As usually defined, the pIC50 is −log10 of the IC50, conventionally taken in molar units. A low value points to a high IC50.

In brackets after ≈: the same amount, converted by molar mass. Entries after “also recorded” stand apart in the source; their conditions may differ. Like-named read-outs stand apart in the source and are kept apart here. Bounds are passed on as bounds.

T1 sequence (Q8CM62 entry or part of it): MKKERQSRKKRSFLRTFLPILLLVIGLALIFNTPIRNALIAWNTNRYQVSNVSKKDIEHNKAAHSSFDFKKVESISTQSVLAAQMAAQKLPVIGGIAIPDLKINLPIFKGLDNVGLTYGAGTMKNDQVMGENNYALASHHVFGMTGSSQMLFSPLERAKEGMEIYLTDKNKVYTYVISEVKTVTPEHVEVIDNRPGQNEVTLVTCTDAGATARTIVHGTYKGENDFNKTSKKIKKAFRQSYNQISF

With `CC1(C)S[C@@H]2[C@H](NC(=O)[C@H](N)c3ccccc3)C(=O)N2[C@H]1C(=O)O` [Ampicillin, reference compound], the MIC in assay [1] (Streptococcus mutans) came to 0.4 µM (≈ 0.14 µg/mL).

Consider `C[C@@H]1O[C@@H](O[C@H]2C(=O)c3c(O)cc(O)cc3O[C@@H]2c2ccc(O)c(O)c2)[C@H](O)[C@H](O)[C@H]1O` [Astillbin], for which, in assay [2], the “IC50, SrtA (from strain ATCC25175)” value is 7.5 µg/mL (≈ 16.7 µM). Also, in [2] (value in brackets), the IC50 is 16.7 µM.

`COc1cc(C[C@H]2COC(=O)[C@@H]2Cc2cc(O)c(O)c(OC)c2)cc(O)c1O` [Compound 1, 3’,3”-dihydroxy-(−)-matairesinol]: the MIC in assay [1] and in assay [1] (Streptococcus mutans) was above 300 µM each time. The IC50 in assay [3] (setting [11]) stood at 16.1 µM. The “adherence of S. mutans to s-HAs vs control (NG8)” value in assay [4] (1× IC50 (16.1 μM)) is reported as “not significantly different”. In addition, the “decrease of bacterial adhesion to s-HAs compared to the control group” value in assay [4] (4× the IC50 (64.4 μM)) was “about 60%”. Also, in [5] (4× the IC50 (64.4 μM), 0.1% sucrose), the “biofilm formation on 96-well polystyrene plates” value is “significantly reduced”. Also, in assay [5] (0.1% sucrose, safranin staining), the “concentrations disrupting biofilm formation on the surface of resin teeth” value was “higher than 32.2 μM”. Moreover, in assay [6] (4× the IC50, without sucrose), the saliva-induced cell aggregation entry is listed as “significantly repressed”. For the same molecule, the “saliva-induced aggregation of NG8 cells (turbidity at 700 nm)” value in assay [6] (tested at 0×, 1×, 2× and 4× the SrtA IC50 (16.1, 32.2, 64.4 μM), 2 h, 37°C) is “markedly reduced the aggregation of NG8 cells in a dose-dependent manner; also recorded: markedly reduced the aggregation capacity of the bacterial cells in a dose-dependent manner”.

Regarding `COc1cc(C[C@H]2COC(=O)[C@@H]2Cc2ccc(O)c(OC)c2)ccc1O` [Compound 2, (−)-matairesinol], the MIC in assay [1] (Streptococcus mutans) was above 300 µM. For the same molecule, the IC50 in assay [3] (setting [11]) is above 300 µM.

With `O=c1c(O)c(-c2ccc(O)c(O)c2)oc2cc(O)cc(O)c12` [Compound 3, quercetin], in assay [1] (Streptococcus mutans), the MIC is above 300 µM. Further, the “SrtA inhibitory activity (in words)” value in [3] (S. mutans SrtA) was “weak inhibitory activities”.

Take `COc1cc(O)cc(O)c1C(C)=O` [Compound 4, 4,6-dihydroxy-2-methoxyacetophenone]: the MIC in assay [1] (Streptococcus mutans) was above 300 µM. Further, in [3] (S. mutans SrtA), the “SrtA inhibitory activity (in words)” value is reported as “weak inhibitory activities”. Moreover, the IC50 was 151 µM in [3] (setting [11]) and 155 µM in assay [3] (pIC50, pIC50 = −log10(IC50), S. mutans SrtA).

Turning to `CC(C)c1cc(=O)c(O)ccc1O` [Compound 5, 5-hydroxyhinokitiol], in assay [1] (Streptococcus mutans), the MIC is above 300 µM. Moreover, in assay [3] (setting [11]), the half-maximal inhibitory concentration (IC50) came out at 51.7 µM.

Turning to `C/C(=C\Cc1ccc(=O)c(O)cc1C(C)C)CO` [Compound 6, juniperone A], the MIC in [1] (Streptococcus mutans) was found to be 257 µM (≈ 63.8 µg/mL). The IC50 in assay [3] (setting [11]) was found to be 62.5 µM.

In the case of `[F-].[Na+]` [NaF, reference compound], the “effect on S. mutans biofilm formation (positive control)” value in assay [5] (0.1%) is recorded as “potent inhibitory effects”.

`CC(C)C(=O)Cc1c(OCC(O)C(C)(C)O)ccc2ccc(=O)oc12` (stereo not drawn) [Triphasiol, reference compound]: the pIC50 in assay [3] (pIC50 = −log10(IC50), S. mutans SrtA) was determined as 4.60. The IC50 in assay [3] (recombinant SrtA from S. mutans OMZ65, 1 h, 37°C, read-out: SrtA IC50) is 25.3 µM; in assay [7], 34.5 µM.

As for `O=C(O)/C=C/c1ccc(O)c(O)c1` [caffeic acid], the IC50 in [8] was 20.2 µM.

Regarding `COc1cc(/C=C/C(=O)CC(=O)/C=C/c2ccc(O)c(OC)c2)ccc1O` [curcumin], the half-inhibitory concentration (IC50) in assay [9] was 10.2 µM.

Turning to `O=c1c(O)c(-c2ccc(O)cc2O)oc2cc(O)cc(O)c12` [morin], the concentration for half-maximal inhibition (IC50) in assay [9] is 27.2 µM.

As to `O=c1c(O)c(-c2cc(O)c(O)c(O)c2)oc2cc(O)cc(O)c12` [myricetin], the IC50 in [10] was 48.7 µM.

As for (−)-rosmarinic acid, the IC50 in assay [8] is 20.1 µM.
